Data on one compound can be found in publication doi:10.1101/2024.08.13.607785v1 (biorxiv, 2024).

What all share (design): species or system mixed lysate of K562, MV4-11, THP-1, NCI-H1155
Details in all cases: DDA-MS residual binding; binder

In assay [1] the target is Tyrosine-protein kinase Fyn ; FYN ; P06241 (Homo sapiens, UniProt P06241).
For assay [2], the target named is Receptor-interacting serine/threonine-protein kinase 2 ; RIPK2 ; O43353 (Homo sapiens, UniProt O43353).
The target of assay [3] is T1, Ephrin type-B receptor 2 ; EPHB2 ; P29323 (Homo sapiens, UniProt P29323).
T1 sequence (P29323 1-1055): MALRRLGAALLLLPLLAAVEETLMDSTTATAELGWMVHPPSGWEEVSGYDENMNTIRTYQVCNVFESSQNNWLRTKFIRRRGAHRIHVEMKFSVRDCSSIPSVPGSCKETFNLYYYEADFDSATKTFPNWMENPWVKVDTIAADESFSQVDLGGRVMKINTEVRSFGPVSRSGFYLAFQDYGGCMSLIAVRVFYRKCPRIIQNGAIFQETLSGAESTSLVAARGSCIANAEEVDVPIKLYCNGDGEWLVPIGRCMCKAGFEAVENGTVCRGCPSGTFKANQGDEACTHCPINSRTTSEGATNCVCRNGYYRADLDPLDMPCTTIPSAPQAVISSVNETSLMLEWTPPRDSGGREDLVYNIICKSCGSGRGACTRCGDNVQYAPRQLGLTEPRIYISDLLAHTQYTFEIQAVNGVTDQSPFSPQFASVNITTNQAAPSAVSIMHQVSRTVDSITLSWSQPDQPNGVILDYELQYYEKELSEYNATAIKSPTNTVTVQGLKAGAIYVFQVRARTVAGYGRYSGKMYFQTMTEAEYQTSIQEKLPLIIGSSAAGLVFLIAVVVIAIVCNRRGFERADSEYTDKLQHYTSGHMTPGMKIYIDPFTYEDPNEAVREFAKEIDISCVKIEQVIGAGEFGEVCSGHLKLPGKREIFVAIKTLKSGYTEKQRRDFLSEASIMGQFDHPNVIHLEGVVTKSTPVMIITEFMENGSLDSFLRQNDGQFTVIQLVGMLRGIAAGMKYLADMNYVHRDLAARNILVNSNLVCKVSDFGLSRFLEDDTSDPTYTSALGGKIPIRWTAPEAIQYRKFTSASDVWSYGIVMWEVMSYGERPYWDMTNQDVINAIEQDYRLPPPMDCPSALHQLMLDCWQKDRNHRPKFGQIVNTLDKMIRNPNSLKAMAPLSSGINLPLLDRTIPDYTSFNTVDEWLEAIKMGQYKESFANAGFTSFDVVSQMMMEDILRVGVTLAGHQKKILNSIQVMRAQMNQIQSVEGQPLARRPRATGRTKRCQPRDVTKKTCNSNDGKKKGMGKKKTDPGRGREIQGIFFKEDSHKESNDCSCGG

For assay [4], the target named is Mitogen-activated protein kinase 14 ; MAPK14-2 ; Q16539-2 (Homo sapiens, UniProt Q16539).
Chain of Mitogen-activated protein kinase 14 ; MAPK14-2 ; Q16539-2 (Q16539 whole entry): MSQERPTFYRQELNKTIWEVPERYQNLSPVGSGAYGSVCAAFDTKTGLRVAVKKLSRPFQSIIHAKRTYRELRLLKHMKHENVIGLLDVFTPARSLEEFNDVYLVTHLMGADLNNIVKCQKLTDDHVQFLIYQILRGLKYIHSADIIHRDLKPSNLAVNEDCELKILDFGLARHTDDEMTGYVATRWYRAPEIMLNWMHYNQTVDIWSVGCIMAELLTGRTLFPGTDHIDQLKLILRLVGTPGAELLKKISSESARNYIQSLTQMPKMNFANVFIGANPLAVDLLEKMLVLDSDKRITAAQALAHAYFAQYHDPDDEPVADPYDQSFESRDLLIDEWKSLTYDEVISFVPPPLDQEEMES
In assay [5] the target is T2, Cyclin-G-associated kinase ; GAK ; O14976 (Homo sapiens, UniProt O14976).
T2 sequence (O14976 1-1311): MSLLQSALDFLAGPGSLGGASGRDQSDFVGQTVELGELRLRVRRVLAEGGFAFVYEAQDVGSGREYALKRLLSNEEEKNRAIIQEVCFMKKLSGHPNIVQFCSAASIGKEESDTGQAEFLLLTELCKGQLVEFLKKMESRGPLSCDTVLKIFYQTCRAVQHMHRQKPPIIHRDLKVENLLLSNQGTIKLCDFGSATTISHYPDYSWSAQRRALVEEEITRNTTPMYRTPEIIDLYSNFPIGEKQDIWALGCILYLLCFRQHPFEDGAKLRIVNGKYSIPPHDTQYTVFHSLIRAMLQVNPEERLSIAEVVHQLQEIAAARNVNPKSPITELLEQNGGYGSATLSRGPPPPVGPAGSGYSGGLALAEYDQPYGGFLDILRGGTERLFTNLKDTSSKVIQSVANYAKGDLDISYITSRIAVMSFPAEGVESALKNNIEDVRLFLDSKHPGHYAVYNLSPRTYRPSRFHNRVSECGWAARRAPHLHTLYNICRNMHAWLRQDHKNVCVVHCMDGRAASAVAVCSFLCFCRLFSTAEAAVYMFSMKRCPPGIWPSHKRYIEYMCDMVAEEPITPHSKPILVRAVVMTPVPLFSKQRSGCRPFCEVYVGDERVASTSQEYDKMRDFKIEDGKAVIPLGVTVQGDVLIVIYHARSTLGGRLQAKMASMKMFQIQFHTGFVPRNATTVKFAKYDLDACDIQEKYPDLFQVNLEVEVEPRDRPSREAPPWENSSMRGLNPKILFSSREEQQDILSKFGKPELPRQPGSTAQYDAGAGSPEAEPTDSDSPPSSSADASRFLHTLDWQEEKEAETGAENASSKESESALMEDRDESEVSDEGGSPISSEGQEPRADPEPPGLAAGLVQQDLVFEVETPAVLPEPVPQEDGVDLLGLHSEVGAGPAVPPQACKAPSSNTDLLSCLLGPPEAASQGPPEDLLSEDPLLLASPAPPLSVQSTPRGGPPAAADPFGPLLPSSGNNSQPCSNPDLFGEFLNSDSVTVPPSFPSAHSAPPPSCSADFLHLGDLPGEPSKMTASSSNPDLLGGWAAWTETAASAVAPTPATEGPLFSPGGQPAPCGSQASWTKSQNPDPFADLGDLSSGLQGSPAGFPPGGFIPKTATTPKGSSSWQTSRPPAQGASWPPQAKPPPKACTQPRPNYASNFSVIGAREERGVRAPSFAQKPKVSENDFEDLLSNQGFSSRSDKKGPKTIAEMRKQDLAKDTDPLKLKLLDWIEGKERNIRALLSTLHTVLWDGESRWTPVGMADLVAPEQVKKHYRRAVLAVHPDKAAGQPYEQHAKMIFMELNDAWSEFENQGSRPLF

In assay [6] the target is Ephrin type-A receptor 5 ; EPHA5 ; P54756 (Homo sapiens, UniProt P54756).
Chain of Ephrin type-A receptor 5 ; EPHA5 ; P54756 (P54756 whole entry): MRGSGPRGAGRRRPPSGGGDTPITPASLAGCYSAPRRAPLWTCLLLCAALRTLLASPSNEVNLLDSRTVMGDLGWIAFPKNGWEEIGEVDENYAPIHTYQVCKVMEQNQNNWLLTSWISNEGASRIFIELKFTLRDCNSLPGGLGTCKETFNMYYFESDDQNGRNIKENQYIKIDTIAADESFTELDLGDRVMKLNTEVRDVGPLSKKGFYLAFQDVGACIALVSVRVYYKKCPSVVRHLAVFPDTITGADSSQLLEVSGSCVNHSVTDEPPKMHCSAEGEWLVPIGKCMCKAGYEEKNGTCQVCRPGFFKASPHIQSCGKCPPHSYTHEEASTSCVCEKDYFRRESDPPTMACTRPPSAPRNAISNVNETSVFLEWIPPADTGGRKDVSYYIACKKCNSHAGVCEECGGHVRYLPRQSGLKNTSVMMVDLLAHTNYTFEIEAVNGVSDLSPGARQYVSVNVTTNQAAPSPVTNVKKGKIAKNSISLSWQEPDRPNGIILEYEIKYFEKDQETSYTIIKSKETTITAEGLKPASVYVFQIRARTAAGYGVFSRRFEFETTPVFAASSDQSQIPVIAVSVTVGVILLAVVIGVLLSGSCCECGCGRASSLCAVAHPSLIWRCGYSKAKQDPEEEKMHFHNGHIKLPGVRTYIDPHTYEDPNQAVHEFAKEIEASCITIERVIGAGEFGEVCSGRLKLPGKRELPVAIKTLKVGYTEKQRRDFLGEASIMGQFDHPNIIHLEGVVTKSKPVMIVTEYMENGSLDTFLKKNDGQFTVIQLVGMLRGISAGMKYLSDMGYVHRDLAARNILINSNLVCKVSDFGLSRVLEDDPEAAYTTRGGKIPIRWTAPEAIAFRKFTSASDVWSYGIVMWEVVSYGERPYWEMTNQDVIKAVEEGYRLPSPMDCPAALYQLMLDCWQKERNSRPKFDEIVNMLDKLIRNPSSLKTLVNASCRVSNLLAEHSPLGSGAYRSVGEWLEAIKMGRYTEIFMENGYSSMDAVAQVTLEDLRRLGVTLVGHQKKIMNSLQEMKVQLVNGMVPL

Chain of Tyrosine-protein kinase Fyn ; FYN ; P06241 (P06241 whole entry): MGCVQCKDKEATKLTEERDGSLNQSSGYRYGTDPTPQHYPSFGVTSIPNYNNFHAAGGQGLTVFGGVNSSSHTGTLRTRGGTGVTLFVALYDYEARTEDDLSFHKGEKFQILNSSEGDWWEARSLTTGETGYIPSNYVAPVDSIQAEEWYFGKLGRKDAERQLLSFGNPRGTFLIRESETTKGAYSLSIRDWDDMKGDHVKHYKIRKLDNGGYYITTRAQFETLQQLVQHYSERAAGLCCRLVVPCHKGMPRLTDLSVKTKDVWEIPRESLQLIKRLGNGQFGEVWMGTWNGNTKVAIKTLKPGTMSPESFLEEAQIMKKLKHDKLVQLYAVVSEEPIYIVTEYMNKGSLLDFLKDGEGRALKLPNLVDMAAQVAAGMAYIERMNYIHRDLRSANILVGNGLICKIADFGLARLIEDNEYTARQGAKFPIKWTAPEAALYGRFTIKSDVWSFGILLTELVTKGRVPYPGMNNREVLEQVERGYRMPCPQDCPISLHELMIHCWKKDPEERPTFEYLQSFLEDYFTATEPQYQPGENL
Chain of Receptor-interacting serine/threonine-protein kinase 2 ; RIPK2 ; O43353 (O43353 whole entry, one chain of several): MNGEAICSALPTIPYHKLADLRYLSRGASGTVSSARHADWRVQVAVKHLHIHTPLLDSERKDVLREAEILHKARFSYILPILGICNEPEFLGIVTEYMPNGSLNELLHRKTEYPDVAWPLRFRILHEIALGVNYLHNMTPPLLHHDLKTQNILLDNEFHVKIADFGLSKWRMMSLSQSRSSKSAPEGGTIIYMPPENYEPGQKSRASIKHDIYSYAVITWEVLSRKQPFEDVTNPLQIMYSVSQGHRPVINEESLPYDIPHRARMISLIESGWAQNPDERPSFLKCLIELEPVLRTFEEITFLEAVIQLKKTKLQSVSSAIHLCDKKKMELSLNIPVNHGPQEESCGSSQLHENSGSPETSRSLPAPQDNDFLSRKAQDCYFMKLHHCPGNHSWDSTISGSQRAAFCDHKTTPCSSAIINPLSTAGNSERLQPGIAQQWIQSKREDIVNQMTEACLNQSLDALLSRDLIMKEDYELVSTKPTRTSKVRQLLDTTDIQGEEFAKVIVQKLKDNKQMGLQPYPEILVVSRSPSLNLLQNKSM

Turning to `Cc1nc(Nc2ncc(C(=O)Nc3c(C)cccc3Cl)s2)cc(N2CCN(CCO)CC2)n1` [dasatinib], the “DDA-MS / % Intensity (30 µM/DMSO)” value in assay [1] came out at 1.698%; in assay [2], 1.02%; in assay [3], 7.218%; in assay [4], 29.04%; in assay [5], 1.947%; in assay [6], 2.68%.
